What is called MIC is the least concentration at which growth counts as inhibited. Read a low MIC as inhibition by little substance. As a reminder, the IC50 is the concentration at which inhibition is half-maximal. A high value points to weaker potency in that assay.

Values after ≈ are worked out from the molar mass of the structure shown.

The test system of one test is Escherichia coli. In words: Antibacterial activity against Escherichia coli KL16. In kind it is functional.
For a further test, the system named is Staphylococcus aureus. In words: Antibacterial activity against Staphylococcus aureus ATCC 13709. In kind it is functional.
The test system of the next test is Streptococcus pneumoniae. In words: Antibacterial activity against Streptococcus pneumoniae ATCC 49619. It counts as functional.
Test [1] can be described thus: Inhibition of bacterial DNA gyrase.
Test [2] is described as follows: Inhibition of bacterial DNA topoisomerase 4.

`COc1ccc2nccc(-n3cc4c(n3)CCC(NC(=O)c3cc5c(cc3C)SCC(=O)N5)C4)c2n1` (stereo not drawn): the values for the MIC in the test with Escherichia coli, in the test on Staphylococcus aureus and against Streptococcus pneumoniae were more than 16 µg/mL, 0.25 µg/mL (≈ 0.499 µM) and more than 16 µg/mL, respectively.
For `COc1ccc2nccc(-n3cc4c(n3)CCC(NC(=O)c3cc(F)c(Cl)cc3Cl)C4)c2c1` (stereo not drawn), the values for the MIC with Staphylococcus aureus and in the test on Streptococcus pneumoniae were 0.25 µg/mL (≈ 0.515 µM) and 8 µg/mL (≈ 16.5 µM), respectively.
Take `COc1ccc2nccc(-n3cc4c(n3)CCC(NC(=O)c3cc5c(cc3C(F)(F)F)SCC(=O)N5)C4)c2c1` (stereo not drawn): the results for the IC50 in test [1] and in test [2] were 1 µg/mL (≈ 1.81 µM) and 0.25 µg/mL (≈ 0.452 µM), respectively. For the same compound, the minimum inhibitory concentration (MIC) was determined as 8 µg/mL (≈ 14.5 µM) in the test with Escherichia coli, 0.125 µg/mL (≈ 0.226 µM) in the test on Staphylococcus aureus and 8 µg/mL (≈ 14.5 µM) in the test with Streptococcus pneumoniae.
As to `COc1ccc2nccc(-n3cc4c(n3)CCC(NC(=O)c3cc5c(cc3Cl)SCC(=O)N5)C4)c2c1` (stereo not drawn), in test [1], the IC50 stood at 0.5 µg/mL (≈ 0.962 µM). Besides, the MIC against Escherichia coli is 2 µg/mL (≈ 3.85 µM); in the test with Staphylococcus aureus it was less than 0.125 µg/mL; in the test with Streptococcus pneumoniae, 2 µg/mL (≈ 3.85 µM).
Take `COc1ccc2nccc(-n3cc4c(n3)CCC(NCc3ccc5c(c3)NCCS5)C4)c2c1` (stereo not drawn): the values for the IC50 in test [1] and in test [2] were 0.5 µg/mL (≈ 1.09 µM) and 0.0625 µg/mL (≈ 0.137 µM), respectively. Also, the figures for the MIC in the test with Escherichia coli, in the test with Staphylococcus aureus and in the test on Streptococcus pneumoniae were 8 µg/mL (≈ 17.5 µM), 0.5 µg/mL (≈ 1.09 µM) and 0.5 µg/mL (≈ 1.09 µM), respectively.
`COc1ccc2nccc(-n3cc4c(n3)CCC(NCc3ccc5c(n3)NC(=O)CO5)C4)c2n1` (stereo not drawn): the IC50 in test [1] was less than 0.125 µg/mL; in test [2], 0.016 µg/mL (≈ 0.035 µM). Further, the MIC came to 2 µg/mL (≈ 4.37 µM) with Escherichia coli, 0.25 µg/mL (≈ 0.546 µM) against Staphylococcus aureus and 2 µg/mL (≈ 4.37 µM) in the test with Streptococcus pneumoniae.
Regarding `CCOC(=O)c1cc2c(cc1C(=O)NC1CCc3nn(-c4ccnc5ccc(OC)cc45)cc3C1)NC(=O)CS2` (stereo not drawn), the MIC was more than 16 µg/mL in the test with Escherichia coli, 2 µg/mL (≈ 3.59 µM) with Staphylococcus aureus and more than 16 µg/mL in the test with Streptococcus pneumoniae.
In test [1], `COc1ccc2nccc(-n3cc4c(n3)CCC(NCCCc3ccccc3)C4)c2n1` (stereo not drawn) gave an IC50 of 0.8 µg/mL (≈ 1.93 µM). Also, the figures for the MIC against Staphylococcus aureus and in the test on Streptococcus pneumoniae were 0.25 µg/mL (≈ 0.605 µM) and less than 0.125 µg/mL, respectively.
`COc1ccc2nccc(-n3cc4c(n3)CCC(NC(=O)c3ccc5c(c3)NC(=O)CO5)C4)c2n1` (stereo not drawn): the IC50 is 1 µg/mL (≈ 2.13 µM) in test [1] and 0.25 µg/mL (≈ 0.531 µM) in test [2]. The results for the minimum inhibitory concentration (MIC) in the test on Escherichia coli, against Staphylococcus aureus and in the test with Streptococcus pneumoniae were 4 µg/mL (≈ 8.5 µM), 0.125 µg/mL (≈ 0.266 µM) and 8 µg/mL (≈ 17 µM), respectively.
For `COc1ccc2nccc(-n3cc4c(n3)CCC(NC(=O)c3cc5c(cc3C(F)(F)F)SCC(=O)N5)C4)c2n1` (stereo not drawn), in test [1], the IC50 worked out at 0.25 µg/mL (≈ 0.451 µM). Also, the MIC worked out at 4 µg/mL (≈ 7.21 µM) against Escherichia coli, 0.125 µg/mL (≈ 0.225 µM) with Staphylococcus aureus and 8 µg/mL (≈ 14.4 µM) in the test on Streptococcus pneumoniae.
As to `COc1ccc2nccc(-n3cc4c(n3)CCC(NCc3ccc5c(c3)OCCO5)C4)c2n1` (stereo not drawn), the values for the IC50 in test [1] and in test [2] were 1 µg/mL (≈ 2.25 µM) and 0.25 µg/mL (≈ 0.564 µM), respectively. Moreover, the MIC against Escherichia coli is 32 µg/mL (≈ 72.2 µM); in the test on Staphylococcus aureus, 0.03 µg/mL (≈ 0.0676 µM); in the test on Streptococcus pneumoniae it was 0.5 µg/mL (≈ 1.13 µM).
Take `COc1ccc2nccc(-n3cc4c(n3)CCC(NCc3ccc5c(c3)OCO5)C4)c2n1` (stereo not drawn): the 50% inhibitory concentration (IC50) in test [1] and in test [2] was 0.25 µg/mL (≈ 0.582 µM) in each case. Moreover, the minimal inhibitory concentration (MIC) against Escherichia coli was found to be 32 µg/mL (≈ 74.5 µM); against Staphylococcus aureus, 0.5 µg/mL (≈ 1.16 µM); against Streptococcus pneumoniae it was 2 µg/mL (≈ 4.66 µM).
For `COc1ccc2nccc(-n3cc4c(n3)CCC(NC(=O)c3cc5ccccc5[nH]3)C4)c2c1` (stereo not drawn), the figures for the IC50 in test [1] and in test [2] were more than 16 µg/mL and 1 µg/mL (≈ 2.29 µM), respectively. For the same compound, the results for the minimal inhibitory concentration (MIC) against Escherichia coli, in the test on Staphylococcus aureus and against Streptococcus pneumoniae were more than 128 µg/mL, 1 µg/mL (≈ 2.29 µM) and 8 µg/mL (≈ 18.3 µM), respectively.
For the compound `COc1ccc2nccc(-n3cc4c(n3)CCC(NCc3ccc5c(c3)NCCS5)C4)c2n1` (stereo not drawn), the IC50 is 0.5 µg/mL (≈ 1.09 µM) in test [1] and 0.03 µg/mL (≈ 0.0654 µM) in test [2]. For the same compound, the results for the MIC against Escherichia coli, against Staphylococcus aureus and against Streptococcus pneumoniae were 8 µg/mL (≈ 17.4 µM), less than 0.125 µg/mL and 0.25 µg/mL (≈ 0.545 µM), respectively.
For the compound `Cc1cc(-n2cc3c(n2)CCC(NC(=O)c2ccc4c(c2)NC(=O)CS4)C3)c2cc(F)ccc2n1` (stereo not drawn), the IC50 in test [1] worked out at 4 µg/mL (≈ 8.2 µM); in test [2], 0.5 µg/mL (≈ 1.03 µM). Moreover, the MIC was more than 128 µg/mL in the test with Escherichia coli, 8 µg/mL (≈ 16.4 µM) in the test on Staphylococcus aureus and more than 128 µg/mL in the test with Streptococcus pneumoniae.
On to `COc1ccc2nccc(-n3cc4c(n3)CCC(NC(=O)/C=C/c3ccccc3)C4)c2c1` (stereo not drawn), for which the half-inhibitory concentration (IC50) in test [1] amounted to 16 µg/mL (≈ 37.7 µM); in test [2], 0.5 µg/mL (≈ 1.18 µM). Also, the MIC against Staphylococcus aureus was 1 µg/mL (≈ 2.36 µM); against Streptococcus pneumoniae, 4 µg/mL (≈ 9.42 µM).
`COc1ccc2nccc(-n3cc4c(n3)CCC(NC(=O)c3ccc5c(c3)OCCO5)C4)c2c1` (stereo not drawn) displayed an IC50 in test [1] of 4 µg/mL (≈ 8.76 µM). The MIC in the test with Escherichia coli was more than 128 µg/mL; in the test on Staphylococcus aureus, 2 µg/mL (≈ 4.38 µM); against Streptococcus pneumoniae, 8 µg/mL (≈ 17.5 µM).
Take `O=C1CSc2ccc(C(=O)NC3CCc4nn(-c5cccc6ccccc56)cc4C3)cc2N1` (stereo not drawn): the IC50 in test [1] came to 2 µg/mL (≈ 4.4 µM); in test [2], 0.125 µg/mL (≈ 0.275 µM). The MIC in the test on Escherichia coli is more than 128 µg/mL; against Staphylococcus aureus it was 0.5 µg/mL (≈ 1.1 µM); against Streptococcus pneumoniae it was 8 µg/mL (≈ 17.6 µM).
Regarding `COc1ccc2nccc(-n3cc4c(n3)CCC(NC(=O)c3cc5c(cc3OC)SCC(=O)N5)C4)c2n1` (stereo not drawn), the MIC is more than 16 µg/mL against Escherichia coli, 2 µg/mL (≈ 3.87 µM) against Staphylococcus aureus and 16 µg/mL (≈ 31 µM) against Streptococcus pneumoniae.
The compound `COc1ccc2nccc(-n3cc4c(n3)CCC(NC(=O)c3c(F)cc5c(c3F)NC(=O)CS5)C4)c2c1` (stereo not drawn) gave an IC50 in test [1] of 1 µg/mL (≈ 1.92 µM). The MIC in the test with Escherichia coli is 8 µg/mL (≈ 15.3 µM); with Staphylococcus aureus, 0.125 µg/mL (≈ 0.24 µM); against Streptococcus pneumoniae it was 1 µg/mL (≈ 1.92 µM).
With `CCOC(=O)c1cc2c(cc1C(=O)NC1CCc3nn(-c4ccnc5ccc(OC)nc45)cc3C1)NC(=O)CS2` (stereo not drawn), the MIC against Escherichia coli is more than 16 µg/mL; against Staphylococcus aureus it was 0.5 µg/mL (≈ 0.895 µM); in the test on Streptococcus pneumoniae, more than 16 µg/mL.
As for `COc1ccc2nccc(-n3cc4c(n3)CCC(NC(=O)c3c(F)cc5c(c3F)NC(=O)CS5)C4)c2n1` (stereo not drawn), the IC50 in test [1] came out at 1 µg/mL (≈ 1.91 µM). Moreover, the MIC was more than 128 µg/mL with Escherichia coli, 0.125 µg/mL (≈ 0.239 µM) against Staphylococcus aureus and 4 µg/mL (≈ 7.65 µM) in the test on Streptococcus pneumoniae.
`COc1ccc2nccc(-n3cc4c(n3)CCC(NC(=O)c3ccc(C)c([N+](=O)[O-])c3)C4)c2c1` (stereo not drawn) displayed an IC50 in test [1] of more than 16 µg/mL. Also, the MIC with Staphylococcus aureus was 0.25 µg/mL (≈ 0.546 µM); against Streptococcus pneumoniae it was 4 µg/mL (≈ 8.74 µM).
In the test on Staphylococcus aureus, `O=C(O)c1cn(C2CC2)c2cc(N3CCNCC3)c(F)cc2c1=O` [CIPROFLOXACIN] yielded an MIC of 0.25 µg/mL (≈ 0.754 µM).
On to `COc1ccc2nccc(-n3cc4c(n3)CCC(NC(=O)c3cc5c(cc3C)SCC(=O)N5)C4)c2c1` (stereo not drawn), for which the minimum inhibitory concentration (MIC) with Escherichia coli amounted to 8 µg/mL (≈ 16 µM); with Staphylococcus aureus, 0.5 µg/mL (≈ 1 µM); with Streptococcus pneumoniae it was 16 µg/mL (≈ 32 µM).
In turn, `COc1ccc2nccc(-n3cc4c(n3)CCC(NC(=O)c3cc5c(cc3Cl)SCC(=O)N5)C4)c2n1` (stereo not drawn) returned an IC50 in test [1] of 0.12 µg/mL (≈ 0.23 µM). Further, the MIC in the test with Escherichia coli is 2 µg/mL (≈ 3.84 µM); in the test with Staphylococcus aureus, less than 0.125 µg/mL; in the test on Streptococcus pneumoniae, 4 µg/mL (≈ 7.68 µM).
As to `COc1ccc2nccc(-n3cc4c(n3)CCC(NC(=O)c3cc5c(cc3C(=O)O)SCC(=O)N5)C4)c2n1` (stereo not drawn), the MIC against Escherichia coli is more than 16 µg/mL; in the test on Staphylococcus aureus it was 0.5 µg/mL (≈ 0.942 µM); against Streptococcus pneumoniae it was 16 µg/mL (≈ 30.2 µM).
In test [1], `COc1ccc2nccc(-n3cc4c(n3)CCC(NC(=O)/C=C/c3ccccc3)C4)c2n1` (stereo not drawn) showed an IC50 of 8 µg/mL (≈ 18.8 µM). Besides, the MIC in the test with Staphylococcus aureus stood at 0.25 µg/mL (≈ 0.588 µM); in the test with Streptococcus pneumoniae it was 2 µg/mL (≈ 4.7 µM).
Take `COc1ccc2nccc(-n3cc4c(n3)CCC(NC(=O)c3cc5c(cc3C(=O)O)SCC(=O)N5)C4)c2c1` (stereo not drawn): the MIC against Escherichia coli was more than 16 µg/mL; in the test on Staphylococcus aureus, 1 µg/mL (≈ 1.89 µM); against Streptococcus pneumoniae, more than 16 µg/mL.
With `COc1ccc2nccc(-n3cc4c(n3)CCC(NC(=O)c3ccc(C)c([N+](=O)[O-])c3)C4)c2n1` (stereo not drawn), the minimal inhibitory concentration (MIC) was 0.25 µg/mL (≈ 0.545 µM) against Staphylococcus aureus and 8 µg/mL (≈ 17.4 µM) in the test on Streptococcus pneumoniae.

For the origin of these results see ChEMBL document CHEMBL1147922, “Tetrahydroindazole inhibitors of bacterial type II topoisomerases. Part 2: SAR development and potency against multidrug-resistant strains” (Bioorg Med Chem Lett, 2007).
